Several values for one entry are separate records, joined by “and”; a condition that tells them apart may be missing. Identical values can stand only once.
Assays:
Assay type in all cases: in vivo, human
[1] = test system: chronic pruritus associated with atopic dermatitis; assay: Phase II randomized double-blind placebo-controlled study NCT02651714 (Example 3); design: key to average itch VAS, difference / worst itch VAS, difference: VAS in mm, 0-100 mm scale; key to Average Itch VAS / worst Itch VAS: change in VAS, mm on 0-100 mm scale; CGI-C / SKINDEX-16 / Worst Itch NRS Night / worst itch NRS night, difference / CGIC, difference: scale not given here
Protocol: A phase II, multicenter, randomized, double-blind, placebo-controlled clinical study (“Tradipitant in Treatment-resistant Pruritus Associated with Atopic Dermatitis,” clinicaltrials.gov Study ID NCT02651714) is conducted to determine the efficacy of tradipitant relative to placebo in reducing chronic pruritus as measured by the VAS.
Inclusion criteria for the study include chronic (≥6 weeks) itch related to AD that is refractory to treatment by patient history, average itch score by VAS of ≥70 mm (out of 100 mm), verbal response score (VRS) of ≥3 on at least one of the past three days prior to randomization, and a SCORAD of <80.
Patients are randomized to receive either 85 mg of tradipitant or placebo (1:1) bid. The design for the randomized, placebo-controlled, double-blind study is depicted in FIG. 3. Individuals with chronic pruritus associated with AD are administered 85 mg of tradipitant bid or placebo for eight weeks. Average itch severity and worst itch severity are assessed by VAS, and VRS is assessed every two weeks. In addition, treatment is assessed biweekly using both the objective and subjective SCORing Atopic Dermatitis (SCORAD) Index (Severity Scoring of Atopic Dermatitis: The SCORAD Index, Consensus Report of the European Task Force on Atopic Dermatitis, Dermatology 1993; 186:23-31) and the Eczema Area and Severity Index (EASI) (Hanifin et al., The eczema area and severity index (EASI): assessment of reliability in atopic dermatitis, Experimental Dermatology 10(1):11-18 (2001)). The Clinical Global Impressions of Change (CGI-C) scale, the Patient Global Impression of Change (PGIC) scale with respect to both itch and AD, the Patient Benefit Index (PBI), and SKINDEX-16 scales are also used for assessments. Twice daily questionnaires are completed to report worst and average itch by numeric rating scale (NRS).
The objective SCORAD assessment includes parameters including extension, intensity, excoriations, erythema, oozing or crusting, the presence of edema or papules, lichenification, and skin dryness. The subjective SCORAD assessment includes patient assessments of itch and insomnia.

[2] = Plasma levels of tradipitant at time of efficacy evaluation, PK analysis (Example 1); conditions: 100 mg qd
Protocol: Baseline VAS scores are 76.1 and 77.2 for the tradipitant and placebo arms respectively. Efficacy is evaluated through a number of clinical research instruments. In addition, at the time of efficacy evaluation blood samples are collected for PK analysis in order to determine the plasma levels of tradipitant.
The average plasma concentrations of tradipitant across AM and PM-evaluated patients are between about 125 ng/mL and about 225 ng/mL. Patients evaluated in the afternoons (PM) (mean=about 20 hours post last administration) tend to have lower plasma concentrations of tradipitant than patients evaluated in the mornings (AM) (mean=about 15 hours post last administration). The average plasma concentration in the PM group is about 125 ng/mL, and the average plasma concentration in the AM group is about 225 ng/mL, the difference being largely attributable to the length of time post-administration.

[3] = Plasma concentration levels of tradipitant in healthy subjects (Example 2)
Protocol: A study is conducted in which healthy subject participants are orally administered 85 mg tradipitant on study day 3, and then 85 mg tradipitant Q12H on study days 4-16. Plasma concentration levels of tradipitant are measured on each of day 3, day 7, and day 11.
This study illustrates that administration of 85 mg tradipitant qd (on day 3) produces an average plasma concentration over hours 0-12 that is about 50% of the plasma concentration observed in the PM group in Example 1. On days 7 and 11, the average plasma concentration over hours 0-12 following administration of 85 mg bid (specifically, Q12H) tradipitant is about 150% of the plasma concentration observed in the PM group in Example 1. The average plasma concentration over hours 0-12 at each point is determined by dividing the AUC for hours 0-12 (in (hr.)×(ng/mL)) by 12 hours.

[4] = test system: change of Worst Itch (VAS) in patients suffering from atopic dermatitis; assay: INADL variants modifying change of Worst Itch (VAS) in the treated cohort (Example 6, Table 12)
Excerpt: In addition, within the treated cohort described herein in Example 4, Table 6, the top loci identified as modifying change of Worst Itch (VAS) are variants located within INADL gene, shown below in Table 12.

[5] = test system: responders and non-responders to tradipitant treatment of atopic dermatitis; assay: Association analysis of genetic markers with VAS response to tradipitant treatment (Example 6, Tables 10-11)
Protocol: A further study is performed to identify additional genetic markers that correlate directly with a positive response to tradipitant treatment. To identify the genetic markers, an association analysis is conducted using a logistic additive model. Visual Analog Scale (VAS) is used as the response outcome metric. The identified variants are shown below in Table 10.
Using the top significant SNPs chosen by p-value cutoff, individuals are classified on responder status to tradipitant treatment, with AUC of 0.95 (10 fold cross validation). Loss of function (LOF) and protein coding variants are investigated in terms of VAS outcomes on the cohort of cases.

[6] = ITT population, 85 mg bid, week 8
[7] = categorical, ITT, 85 mg bid, week 8
[8] = difference tradipitant vs placebo, 85 mg bid, week 8

Structure (SMILES): O=C(c1ccccc1Cl)c1cccnc1-c1nnn(Cc2cc(C(F)(F)F)cc(C(F)(F)F)c2)c1-c1ccncc1 [Tradipitant]
- time at which treatment effects in both itch and disease severity are evident ([1]; 85 mg bid): 2 Week
- clinical features of severity of atopic dermatitis, including excoriation, erythema, oozing and dryness ([1]; 85 mg bid vs placebo): significant improvements
- Average Itch VAS [1, 6]: −41.5
- CGI-C [1, 6]: 2.6
- PBI [1, 6]: 1.7 and 1.72
- PGI-C AD [1, 6]: 2.7 and 2.74
- PGI-C Itch [1, 6]: 2.6 and 2.56
- SKINDEX-16 [1, 6]: −34.8
- Worst Itch NRS Night [1, 6]: −3.4
- Worst itch NRS day [1, 6]: −3.3
- worst Itch VAS [1, 6]: −44.2
- Worst itch VAS ≥30 (responders) ([1]; categorical, ≥30 points improvement from baseline, ITT, 85 mg bid, week 8): 56.60%
- Worst itch VAS ≥40 (responders) ([1]; categorical, ≥40 points improvement from baseline, ITT, 85 mg bid, week 8): 52.6%
- EASI ≥75% (patients with 75% or greater improvement) [1, 7]: 21.1%
- SCORAD ≥50% (patients with 50% or greater improvement) [1, 7]: 44.0%
- CGIC, difference [1, 8]: −0.7
- EASI ≥75%, difference [1, 8]: 10.0%
- PBI, difference [1, 8]: 0.48
- PGIC AD, difference [1, 8]: −0.71
- PGIC itch, difference [1, 8]: −0.6
- SCORAD total, difference [1, 8]: −7.68
- SCORAD ≥50%, difference [1, 8]: 23.2%
- average itch VAS, difference [1, 8]: −5.7
- objective SCORAD, difference [1, 8]: −6.1
- subjective SCORAD, difference [1, 8]: −1.43
- worst itch NRS day, difference [1, 8]: −0.81
- worst itch NRS night, difference [1, 8]: −1.05
- worst itch VAS (≥40), difference [1, 8]: 17.9%
- worst itch VAS, difference [1, 8]: −13.6
- average plasma concentration ([2]; AM group, mean about 15 hours post last administration): about 225 ng/mL
- plasma concentration at which patients tend to show greater efficacy ([2]; PK-efficacy correlation): > 100 ng/mL
- average plasma concentration ([2]; PM group, mean about 20 hours post last administration): about 125 ng/mL
- average plasma concentration over hours 0-12 relative to the PM group in Example 1 ([3]; 85 mg bid (Q12H), days 7 and 11): about 150%
- average plasma concentration over hours 0-12 relative to the PM group in Example 1 ([3]; 85 mg qd, day 3): about 50%
- Genotype associated with worse Worst Itch (VAS) response ([4]; INADL SNP rs370530530, minor allele CT, major allele C, treated cohort): CTCT
- response as measured by change of Worst Itch (VAS), by genotype ([4]; INADL rs11207834 TT genotype): itch scale improvement
- response as measured by change of Worst Itch (VAS), by genotype ([4]; INADL rs11207834 minor allele, 85 mg bid): decreased response to treatment
- response to tradipitant treatment of atopic dermatitis by genotype ([5]; CTNNA3 rs57930837 AA genotype): a majority of rs57930837 AA individuals do not respond to treatment
- response to tradipitant treatment of atopic dermatitis by genotype ([5]; CTNNA3 rs57930837 CA genotype): a majority of individuals having a CA rs57930837 genotype respond to treatment
- response to tradipitant treatment of atopic dermatitis by genotype ([5]; CTNNA3 rs57930837 CC genotype): all individuals having a CC rs57930837 genotype respond to treatment

Reference: US11549147B2, “Treatment of atopic dermatitis with tradipitant” (VANDA PHARMACEUTICALS INC., priority 2017, dated 2023)
